pIC50: −log10 of the molar value.
Columns and labels:
[1] = biological target: T1, Phosphodiesterase isozyme 4 (Homo sapiens, UniProt Q86V67); experiment: Inhibition of PDE4 (unknown origin)
T1 sequence (Q86V67 whole entry): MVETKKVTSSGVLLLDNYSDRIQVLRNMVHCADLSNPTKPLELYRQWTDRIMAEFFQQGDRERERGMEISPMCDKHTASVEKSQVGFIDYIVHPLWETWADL

[2] = biological target: Phosphodiesterase 3 (Homo sapiens, UniProt Q14432+Q13370); experiment: Inhibition of PDE3 (unknown origin); format: protein assay

| pIC50 [1] | IC50 [2] [nM] | Structure (SMILES) |
| --- | --- | --- |
| 9.05 |  | COc1ccc(C2=NN(CCCCCc3ccccc3)C(=O)CC2)cc1OC |
| 7.59 |  | CCOc1cc(C(CS(C)(=O)=O)N2C(=O)c3csc(NC(C)=O)c3C2=O)ccc1OC (stereo not given) |
| 8.55 |  | CNc1nc(-c2cccc(NC(=O)c3ccc(C(=O)OC)cc3)c2)c2cc(OC)c(OC)cc2n1 [LOTAMILAST] |
| 5.83 | 0.4 | O=C(Cc1c(Cl)c[n+]([O-])cc1Cl)c1ccc(OC(F)F)c2c1OC1(CCS(=O)(=O)CC1)O2 [ORISMILAST] |

Reference: ChEMBL document CHEMBL5385892, “Advances in the development of phosphodiesterase-4 inhibitors” (Eur J Med Chem, 2023)
